From PubChem BioAssay (NCI)
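Compound exposure: 48 hours, 5 concentrations, 96-well plates. Here, GI50 denotes the concentration required for 50% inhibition of growth. TGI: concentration producing complete growth inhibition.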

Tests used:
Assay in all cases: inhibition of tumour cell growth, NCI panel, 48 h
A498 renal = system: A498 renal
KM12 colon = system: KM12 colon
SW-620 colon = system: SW-620 colon
UO-31 renal = system: UO-31 renal
786-0 renal = system: 786-0 renal
A549 NSCLC = system: A549 NSCLC
BT-549 breast = system: BT-549 breast
CAKI-1 renal = system: CAKI-1 renal
CCRF-CEM leukemia = system: CCRF-CEM leukemia
COLO 205 colon = system: COLO 205 colon
DU-145 prostate = system: DU-145 prostate
EKVX NSCLC = system: EKVX NSCLC
HCC-2998 colon = system: HCC-2998 colon
HCT-116 colon = system: HCT-116 colon
HCT-15 colon = system: HCT-15 colon
HOP-62 NSCLC = system: HOP-62 NSCLC
HOP-92 NSCLC = system: HOP-92 NSCLC
HS 578T breast = system: HS 578T breast
HT29 colon = system: HT29 colon
IGROV1 ovarian = system: IGROV1 ovarian
K-562 leukemia = system: K-562 leukemia
LOX IMVI melanoma = system: LOX IMVI melanoma
MALME-3M melanoma = system: MALME-3M melanoma
MCF7 breast = system: MCF7 breast
MDA-MB-231 breast = system: MDA-MB-231 breast
MOLT-4 leukemia = system: MOLT-4 leukemia
NCI-H226 lung = system: NCI-H226 lung
NCI-H23 lung = system: NCI-H23 lung
NCI-H460 lung = system: NCI-H460 lung
NCI-H522 lung = system: NCI-H522 lung
NCI/ADR-RES ovarian = system: NCI/ADR-RES ovarian
OVCAR-3 ovarian = system: OVCAR-3 ovarian
OVCAR-4 ovarian = system: OVCAR-4 ovarian
OVCAR-5 ovarian = system: OVCAR-5 ovarian
OVCAR-8 ovarian = system: OVCAR-8 ovarian
PC-3 prostate = system: PC-3 prostate
RPMI-8226 leukemia = system: RPMI-8226 leukemia
RXF 393 renal = system: RXF 393 renal
SF-268 CNS = system: SF-268 CNS
SF-295 CNS = system: SF-295 CNS
SF-539 CNS = system: SF-539 CNS
SK-MEL-2 melanoma = system: SK-MEL-2 melanoma
SK-MEL-5 melanoma = system: SK-MEL-5 melanoma
SK-OV-3 ovarian = system: SK-OV-3 ovarian
SN12C renal = system: SN12C renal
SNB-19 CNS = system: SNB-19 CNS
SNB-75 CNS = system: SNB-75 CNS
T-47D breast = system: T-47D breast
TK-10 renal = system: TK-10 renal
U251 CNS = system: U251 CNS
UACC-257 melanoma = system: UACC-257 melanoma
UACC-62 melanoma = system: UACC-62 melanoma
ACHN renal = system: ACHN renal
HL-60(TB) leukemia = system: HL-60(TB) leukemia
M14 melanoma = system: M14 melanoma
MDA-MB-435 = system: MDA-MB-435
SK-MEL-28 melanoma = system: SK-MEL-28 melanoma

In the case of `C#CC[C@@H]1C[C@]2(C)[C@H]3CC[C@@H]4[C@H]5C(C(=C)C)CC[C@]5(C(=O)NCCCCCCCCN)CC[C@@]4(C)[C@]3(C)CC[C@H]2C(C)(C)[C@H]1OC(C)=O` (stereo not given in full), the GI50 (A498 renal) was 2.25 µM, the TGI (A498 renal) was 5.35 µM and the GI50 (KM12 colon) was 1.73 µM. It also gave a TGI (KM12 colon) of 3.22 µM, a GI50 (SW-620 colon) of 1.71 µM and a TGI (SW-620 colon) of 3.31 µM. For the same compound, the GI50 (UO-31 renal) was 1.46 µM and the TGI (UO-31 renal) was 2.84 µM.
Work on `CC(=O)c1cc2c(s1)C(=O)c1sccc1C2=O` yielded a TGI (786-0 renal) of 0.421 µM, a TGI (A498 renal) of 2.77 µM and a TGI (A549 NSCLC) of 0.433 µM. The TGI (BT-549 breast) was 0.0321 µM, the TGI (CAKI-1 renal) was 0.413 µM and the TGI (CCRF-CEM leukemia) was 0.0912 µM. For the same compound, the TGI (COLO 205 colon) was 2.63 µM, the TGI (DU-145 prostate) was 0.0995 µM and the TGI (EKVX NSCLC) was 0.475 µM. It also gave a TGI (HCC-2998 colon) of 0.392 µM, a TGI (HCT-116 colon) of 0.489 µM and a TGI (HCT-15 colon) of 0.0534 µM. For the same compound, the TGI (HOP-62 NSCLC) was 0.0854 µM, the TGI (HOP-92 NSCLC) was 0.746 µM and the TGI (HS 578T breast) was 0.198 µM. It also gave a TGI (HT29 colon) of 0.426 µM, a TGI (IGROV1 ovarian) of 0.337 µM and a TGI (K-562 leukemia) of 0.174 µM. It also gave a TGI (KM12 colon) of 0.332 µM, a TGI (LOX IMVI melanoma) of 0.0249 µM and a TGI (MALME-3M melanoma) of 0.0313 µM. For the same compound, the TGI (MCF7 breast) was 36.8 µM, the TGI (MDA-MB-231 breast) was 0.151 µM and the TGI (MOLT-4 leukemia) was 0.292 µM. It also gave a TGI (NCI-H226 lung) of 0.407 µM, a TGI (NCI-H23 lung) of 0.0378 µM and a TGI (NCI-H460 lung) of 0.211 µM. It also gave a TGI (NCI-H522 lung) of 0.0521 µM, a TGI (NCI/ADR-RES ovarian) of 0.309 µM and a TGI (OVCAR-3 ovarian) of 0.0382 µM. The TGI (OVCAR-4 ovarian) was 0.195 µM, the TGI (OVCAR-5 ovarian) was 0.158 µM and the TGI (OVCAR-8 ovarian) was 0.227 µM. It also gave a TGI (PC-3 prostate) of 0.133 µM, a TGI (RPMI-8226 leukemia) of 0.191 µM and a TGI (RXF 393 renal) of 0.0919 µM. The TGI (SF-268 CNS) was 0.0889 µM, the TGI (SF-295 CNS) was 0.0852 µM and the TGI (SF-539 CNS) was 0.0348 µM. The TGI (SK-MEL-2 melanoma) was 0.193 µM, the TGI (SK-MEL-5 melanoma) was 0.0216 µM and the TGI (SK-OV-3 ovarian) was 3.2 µM. For the same compound, the TGI (SN12C renal) was 0.0294 µM, the TGI (SNB-19 CNS) was 0.202 µM and the TGI (SNB-75 CNS) was 0.0491 µM. It also gave a TGI (SW-620 colon) of 0.28 µM, a TGI (T-47D breast) of 0.7 µM and a TGI (TK-10 renal) of 0.414 µM. For the same compound, the TGI (U251 CNS) was 0.0556 µM, the TGI (UACC-257 melanoma) was 0.0289 µM and the TGI (UACC-62 melanoma) was 0.0898 µM. It also gave a TGI (UO-31 renal) of 0.0908 µM.
`COc1cc([N+](=O)[O-])c(OC)cc1-c1nc2sc(C)cn2c1/C(N)=N/C(=N)N` was tested, and the GI50 (786-0 renal) was greater than 100 µM, the TGI (786-0 renal) was greater than 100 µM and the GI50 (A498 renal) was 27.3 µM. For the same compound, the TGI (A498 renal) was 69.1 µM, the GI50 (A549 NSCLC) was 40.7 µM and the TGI (A549 NSCLC) was greater than 100 µM. For the same compound, the GI50 (ACHN renal) was 50.2 µM, the TGI (ACHN renal) was greater than 100 µM and the GI50 (BT-549 breast) was 29.8 µM. It also gave a TGI (BT-549 breast) greater than 100 µM, a GI50 (CAKI-1 renal) greater than 100 µM and a TGI (CAKI-1 renal) greater than 100 µM. It also gave a GI50 (CCRF-CEM leukemia) of 18 µM, a TGI (CCRF-CEM leukemia) greater than 100 µM and a GI50 (COLO 205 colon) greater than 100 µM. It also gave a TGI (COLO 205 colon) greater than 100 µM, a GI50 (DU-145 prostate) of 16.1 µM and a TGI (DU-145 prostate) greater than 100 µM. The GI50 (EKVX NSCLC) was 15.1 µM, the TGI (EKVX NSCLC) was 50.9 µM and the GI50 (HCT-116 colon) was greater than 100 µM. It also gave a TGI (HCT-116 colon) greater than 100 µM, a GI50 (HCT-15 colon) greater than 100 µM and a TGI (HCT-15 colon) greater than 100 µM. It also gave a GI50 (HL-60(TB) leukemia) greater than 100 µM, a TGI (HL-60(TB) leukemia) greater than 100 µM and a GI50 (HOP-62 NSCLC) of 71.3 µM. For the same compound, the TGI (HOP-62 NSCLC) was greater than 100 µM, the GI50 (HOP-92 NSCLC) was 24.1 µM and the TGI (HOP-92 NSCLC) was 88.3 µM. The GI50 (HS 578T breast) was 25.2 µM, the TGI (HS 578T breast) was 89.2 µM and the GI50 (HT29 colon) was greater than 100 µM. It also gave a TGI (HT29 colon) greater than 100 µM, a GI50 (IGROV1 ovarian) of 32.9 µM and a TGI (IGROV1 ovarian) greater than 100 µM. The GI50 (K-562 leukemia) was 2.59 µM, the TGI (K-562 leukemia) was greater than 100 µM and the GI50 (KM12 colon) was 2.24 µM. For the same compound, the TGI (KM12 colon) was 11.1 µM, the GI50 (LOX IMVI melanoma) was 30.4 µM and the TGI (LOX IMVI melanoma) was greater than 100 µM. For the same compound, the GI50 (M14 melanoma) was greater than 100 µM, the TGI (M14 melanoma) was greater than 100 µM and the GI50 (MALME-3M melanoma) was 13 µM. For the same compound, the TGI (MALME-3M melanoma) was 45.2 µM, the GI50 (MCF7 breast) was 3.92 µM and the TGI (MCF7 breast) was greater than 100 µM. For the same compound, the GI50 (MDA-MB-231 breast) was 16.1 µM, the TGI (MDA-MB-231 breast) was 45.1 µM and the GI50 (MDA-MB-435) was 16.1 µM. For the same compound, the TGI (MDA-MB-435) was greater than 100 µM, the GI50 (MOLT-4 leukemia) was greater than 100 µM and the TGI (MOLT-4 leukemia) was greater than 100 µM. The GI50 (NCI-H226 lung) was 43.2 µM, the TGI (NCI-H226 lung) was greater than 100 µM and the GI50 (NCI-H23 lung) was 89.6 µM. For the same compound, the TGI (NCI-H23 lung) was greater than 100 µM, the GI50 (NCI-H460 lung) was 43.7 µM and the TGI (NCI-H460 lung) was greater than 100 µM. It also gave a GI50 (NCI-H522 lung) of 26.5 µM, a TGI (NCI-H522 lung) greater than 100 µM and a GI50 (NCI/ADR-RES ovarian) greater than 100 µM. It also gave a TGI (NCI/ADR-RES ovarian) greater than 100 µM, a GI50 (OVCAR-3 ovarian) of 27.6 µM and a TGI (OVCAR-3 ovarian) greater than 100 µM. For the same compound, the GI50 (OVCAR-4 ovarian) was greater than 100 µM, the TGI (OVCAR-4 ovarian) was greater than 100 µM and the GI50 (OVCAR-5 ovarian) was greater than 100 µM. For the same compound, the TGI (OVCAR-5 ovarian) was greater than 100 µM, the GI50 (OVCAR-8 ovarian) was 35.7 µM and the TGI (OVCAR-8 ovarian) was greater than 100 µM. It also gave a GI50 (PC-3 prostate) of 45.9 µM, a TGI (PC-3 prostate) greater than 100 µM and a GI50 (RPMI-8226 leukemia) of 84.1 µM. For the same compound, the TGI (RPMI-8226 leukemia) was greater than 100 µM, the GI50 (RXF 393 renal) was 39.8 µM and the TGI (RXF 393 renal) was greater than 100 µM. It also gave a GI50 (SF-268 CNS) of 22 µM, a TGI (SF-268 CNS) greater than 100 µM and a GI50 (SF-295 CNS) of 16.6 µM. The TGI (SF-295 CNS) was greater than 100 µM, the GI50 (SF-539 CNS) was 27.3 µM and the TGI (SF-539 CNS) was greater than 100 µM. For the same compound, the GI50 (SK-MEL-28 melanoma) was 7.02 µM, the TGI (SK-MEL-28 melanoma) was greater than 100 µM and the GI50 (SK-MEL-5 melanoma) was 28.3 µM. The TGI (SK-MEL-5 melanoma) was greater than 100 µM, the GI50 (SK-OV-3 ovarian) was greater than 100 µM and the TGI (SK-OV-3 ovarian) was greater than 100 µM. For the same compound, the GI50 (SN12C renal) was 18.9 µM, the TGI (SN12C renal) was 49.1 µM and the GI50 (SNB-19 CNS) was 39.4 µM. It also gave a TGI (SNB-19 CNS) greater than 100 µM, a GI50 (SNB-75 CNS) greater than 100 µM and a TGI (SNB-75 CNS) greater than 100 µM. The GI50 (SW-620 colon) was 5.78 µM, the TGI (SW-620 colon) was greater than 100 µM and the GI50 (T-47D breast) was greater than 100 µM. The TGI (T-47D breast) was greater than 100 µM, the GI50 (TK-10 renal) was 20.3 µM and the TGI (TK-10 renal) was 50.4 µM. It also gave a GI50 (U251 CNS) of 6.49 µM, a TGI (U251 CNS) greater than 100 µM and a GI50 (UACC-257 melanoma) of 18.4 µM. The TGI (UACC-257 melanoma) was 67 µM, the GI50 (UACC-62 melanoma) was 23.8 µM and the TGI (UACC-62 melanoma) was 52.4 µM. For the same compound, the GI50 (UO-31 renal) was 38.3 µM and the TGI (UO-31 renal) was greater than 100 µM.
